For 22 compounds, EC50 and CC50 results are on record in patent US20120252721A1 (priority 2011, published 2012).

pEC50: −log10 of the molar value. Where only a bound is given, the exact number is not on record here.

The subject of data set [1] is HCV genotype 1a H77 strain subgenomic luciferase replicon (H1a-luc). In words: Luciferase replicon assay, genotype 1a. The settings on record: Hepatitis C virus, read-out: EC50 1a. The class given is cell-based. The procedure:
Drug titration analysis was performed using the luciferase replicon assay described herein.
(§1) The HCV luciferase replicon assay measures the ability of a test compound to inhibit HCV replication in cell culture after 3 days of treatment in a human hepatoma cell line (Huh-7) bearing an HCV replicon containing a luciferase-neomycin phosphotransferase fusion gene. The inhibition of HCV replication was measured by quantification of luciferase protein expression. Briefly, Huh-7 cells containing either the HCV genotype 1a H77 strain or genotype 1b Con1 strain subgenomic luciferase replicon (H1a-luc or Zluc, respectively) were grown in DMEM containing glucose, L-glutamine and sodium pyruvate, 10% fetal bovine serum (FBS), 100 IU/mL penicillin, 100 μg/mL streptomycin, 2 mM GlutaMAX, non-essential amino acids and 0.25 (H1a-luc) or 0.5 (Zluc) mg/mL G418. GlutaMAX was obtained from Invitrogen, Corp.; all other media reagents were obtained from Mediatech, Inc. For dose-response testing, the cells were seeded in 96-well plates at 1×10^4 (H1a-luc) or 7.5×10^3 (Zluc) cells/well in a volume of 50 μL, and incubated at 37° C./5% CO2. Three hours after plating, 50 μL of ten 5-fold serial dilutions of compound were added, and cell cultures were incubated at 37° C./5% CO2 for 72 hours. In all cases, Huh-7 cells lacking the HCV replicon served as negative control. To assess luciferase expression, the media/compound was removed from the plates and ONE-glo Luciferase assay reagent (Promega) was added to each well. The assay plates were shaken for 3 minutes at room temperature and luciferase activity for each well was measured with a 1 sec read time on the Victor^3V multilabel counter using a 700 nm cut-off filter (Perkin Elmer). EC50 values were calculated from dose response curves from the resulting best-fit equations determined by Microsoft Excel and XLfit 4.1 software.
In general terms: Replicon systems follow genome replication, usually without infectious particles.

In data set [2] the test system is HCV genotype 1b Con1 strain subgenomic luciferase replicon (Zluc). In words: Luciferase replicon assay, genotype 1b. The class given is cell-based. The conditions noted are these: Hepatitis C virus. The procedure: as §1
The subject of another data set is H1a-luc or Zluc cells. The experiment in a line: in vitro. The class given is cell-based, human. The conditions noted are these: Table 1B, cellular viability. The procedure: For cytotoxicity evaluation, HPC cells were treated with compounds as described above in the absence of the genotype 2a virus and cellular viability was monitored using the Cell Titer 96 AQueous One Solution Cell Proliferation Assay (Promega). Plates were then read at 490 nm in a Victor^3V 1420 multilabel counter (Perkin Elmer) and CC50 concentrations were determined using Microsoft Excel and XLfit 4.1 software.
For cytotoxicity evaluation, H1a-luc or Zluc cells were treated with compounds as described above and cellular viability was monitored using the Cell Titer 96 AQueous One Solution Cell Proliferation Assay (Promega). Plates were then read at 490 nm in a Victor^3V 1420 multilabel counter (Perkin Elmer) and CC50 concentrations were determined using Microsoft Excel and XLfit 4.1 software.

Data set [3] relates to HCV Con1 subgenomic replicon (GS4.1 cells). The experiment in a line: HCV replicon assay (NS5A ELISA, 72 hrs). Type of data set: cell-based. The conditions noted are these: Hepatitis C virus. The procedure: Huh-7 cells containing HCV Con1 subgenomic replicon (GS4.1 cells) were grown in Dulbecco's Modified Eagle Medium (DMEM) supplemented with 10% fetal bovine serum (FBS), 2 mM L-glutamine, 110 mg/L sodium pyruvate, 1× non-essential amino acids, 100 U/mL penicillin-streptomycin, and 0.5 mg/mL G418 (Invitrogen). For dose-response testing, the cells were seeded in 96-well plates at 7.5×10^3 cells/well in a volume of 50 μL, and incubated at 37° C./5% CO2. Three hours after plating, 50 μL often 2-fold serial dilutions of compounds (highest concentration, 75 μM) were added, and cell cultures were incubated at 37° C./5% CO2 in the presence of 0.5% DMSO. Alternatively, compounds were tested at a single concentration of 15 μM. In all cases, Huh-7 cells lacking the HCV replicon served as negative control. The cells were incubated in the presence of compounds for 72 hrs after which they were monitored for expression of the NS5A protein by enzyme-linked immunosorbent assay (ELISA). For this, the plates were then fixed for 1 min with acetone/methanol (1:1, v/v), washed twice with phosphate-buffered saline (PBS), 0.1% Tween 20, blocked for 1 hr at room temperature with TNE buffer containing 10% FBS and then incubated for 2 hr at 37° C. with the anti-NS5A mouse monoclonal antibody A-236 (ViroGen) diluted in the same buffer. After washing three times with PBS, 0.1% Tween 20, the cells were incubated 1 hr at 37° C. with anti-mouse immunoglobulin G-peroxidase conjugate in TNE, 10% FBS. After washing as described above, the reaction was developed with O-phenylenediamine (Zymed). The reaction was stopped after 30 min with 2 NH2SO4, and absorbance was read at 492 nm using Sunrise Tecan spectrophotometer. EC50 values were determined from the % inhibition versus concentration data using a sigmoidal non-linear regression analysis based on four parameters with Tecan Magellan software.

The nature of another data set: in vitro. The class given is cell-based. The conditions noted are these: human; GS4.1 cells, cellular viability. How it is done:
For cytotoxicity evaluation, GS4.1 cells were treated with compounds as described above and cellular viability was monitored using the Cell Titer 96 AQeous One Solution Cell Proliferation Assay (Promega). CC50 values were determined from the % cytotoxicity versus concentration data with Tecan Magellan software as described above.

Usually pEC50 stands for −log10 of the EC50, conventionally taken in molar units. The CC50 is the concentration at which the toxic effect on the cells reaches its halfway point. Low readings indicate harm at low concentration, high ones better tolerance by the cells. As to `COC(=O)N[C@H](C(=O)N1CCCC1c1ncc(-c2cc3sc(-c4ccc(-c5cnc([C@@H]6CCCN6C(=O)[C@H](NC(=O)OC)c6ccccc6)[nH]5)cc4)cc3s2)[nH]1)C(C)C` (stereo partly drawn) [Compound A217], the negative-log EC50 (pEC50) in data set [1] and in data set [2] was above 10.00 each time. For the same compound, the CC50 in the data set on H1a-luc or Zluc cells was above 75000 nM.
Consider `COC(=O)N[C@H](C(=O)N1CCCC1c1ncc(-c2ccc(-n3ccc4c(-c5cnc(C6CCCN6C(=O)[C@@H](NC(=O)OC)C(C)C)[nH]5)csc43)c(Cl)c2)[nH]1)C(C)C` (stereo partly drawn) [Compound A213], for which the values for the pEC50 in data set [1] and in data set [2] were 9.00 to 10.00 and above 10.00, respectively.
In turn, `COC(=O)N[C@H](C(=O)N1CCC[C@H]1c1ncc(-c2ccc(-c3cn4cc(NC(=O)[C@@H]5CCCN5C(=O)[C@H](NC(=O)OC)c5ccccc5)nc4s3)cc2)[nH]1)C(C)C` [Compound A30, (S,S,S,R)-[1-(2-{5-[4-(6-{[1-(2-methoxycarbonylamino-2-phenyl-acetyl)-pyrrolidin-2-carbonyl]-amino}-imidazo[2,1-b]thiazol-2-yl)-phenyl]-1H-imidazol-2-yl}-pyrrolidine-1-carbonyl)-2-methyl-propyl]-carbamic acid methyl ester] had a pEC50 in data set [3] above 9.00. This compound came in with a half-maximal cytotoxic concentration (CC50) in the data set “in vitro” above 75000 nM.
Turning to `COC(=O)N[C@H](C(=O)N1CCCC1c1ncc(-c2ccc(-c3ccc(-c4nc5sccn5c4Cl)cc3)cc2)[nH]1)C(C)C` (stereo partly drawn) [Compound A154], the pEC50 in data set [3] is 7.00 to 8.00. Also, in the data set “in vitro”, the CC50 was in the range of 10000 to 75000 nM.
Turning to `CC(C)(C)OC(=O)Nc1ccc(-c2cn3cc(NC(=O)[C@@H]4CCCN4C(=O)[C@H](NC(=O)OC(C)(C)C)c4ccccc4)nc3s2)cc1` [Compound A29], the pEC50 in data set [3] was below 7.00. The compound also returned a cytotoxic concentration (CC50) in the data set “in vitro” of 10000 to 75000 nM.
For `COC(=O)N[C@H](C(=O)N1CCCC1c1ncc(-c2ccc(-c3csc4cc(C(=O)OC)[nH]c34)cc2)[nH]1)C(C)C` (stereo partly drawn) [Compound A164], in that order: 7.00 to 8.00 and 10000 to 75000 nM.
Turning to `COC(=O)N[C@H](C(=O)N1CCCC1c1ncc(-c2csc3c(-c4ccc(-c5cnc(C6CCCN6C(=O)[C@@H](NC(=O)OC)C(C)C)[nH]5)cc4)csc23)[nH]1)c1ccccc1` (stereo partly drawn) [Compound A78], in data set [3], the negative-log EC50 (pEC50) was above 9.00. In addition, in “in vitro”, the half-maximal cytotoxic concentration (CC50) is above 75000 nM.
The corresponding values for `COC(=O)N[C@H](C(=O)N1CCC[C@H]1C(=O)Nc1cn2cc(-c3ccc(NC(=O)CNC(=O)[C@H](NC(=O)OC(C)(C)C)c4ccccc4)cc3)sc2n1)C(C)C` [Compound A147] are 7.00 to 8.00 and above 75000 nM.
The corresponding values for `CCOC(=O)N[C@@H](C(=O)N1CCC[C@H]1C(=O)Nc1cn2cc(-c3ccc(-c4cnc([C@@H]5CCCN5C(=O)[C@@H](NC(=O)OC)C(C)C)[nH]4)cc3)sc2n1)c1ccccc1` [Compound A55, (S,S,S,R)-[1-(2-{5-[4-(6-{[1-(2-ethoxycarbonylamino-2-phenylacetyl)-pyrrolidine-2-carbonyl]-amino}imidazo[2,1-b]thiazol-2-yl)-phenyl]-1H-imidazol-2-yl}pyrrolidine-1-carbonyl)-2-methyl-propyl]-carbamic acid methyl ester] are above 9.00 and 10000 to 75000 nM.
In data set [3], `COC(=O)N[C@H](C(=O)N1CCC[C@H]1C(=O)Nc1ccc(-c2cn3cc(NC(=O)C4CCCN4C(=O)[C@@H](NC(=O)OC)C(C)C)nc3s2)cc1)c1ccccc1` (stereo partly drawn) [Compound A32] had a pEC50 above 9.00. This compound also registered a half-maximal cytotoxic concentration (CC50) in the data set “in vitro” above 75000 nM.
For `COC(=O)N[C@@H](C(=O)N1CCC[C@H]1C(=O)Nc1ccc(C#Cc2cn3cc(NC(=O)[C@@H]4CCCN4C(=O)[C@H](NC(=O)OC)c4ccccc4)nc3s2)cc1)c1ccccc1` [Compound A80], in that order: above 9.00 and above 75000 nM.
For `COC(=O)N[C@H](C(=O)N1CCC[C@H]1c1ncc(-c2ccc(-c3cn4cc(-c5cnc(C6CCCN6C(=O)[C@@H](NC(=O)OC(C)(C)C)c6ccccc6)[nH]5)nc4s3)cc2)[nH]1)C(C)C` (stereo partly drawn) [Compound A33], in that order: above 9.00 and above 75000 nM.
The corresponding values for `COC(=O)N[C@H](C(=O)N1CCCC1c1ncc(-c2ccc(-c3csc4c(-c5cnc(C6CCCN6C(=O)OCc6ccccc6)[nH]5)csc34)cc2)[nH]1)C(C)C` (stereo partly drawn) [Compound A49] are above 9.00 and above 75000 nM.
The compound `COC(=O)N[C@H](C(=O)N1CCCC1c1ncc(-c2ccc(-c3csc4c(-c5cnc(C6CCCN6C(=O)OC(C)(C)C)[nH]5)csc34)cc2)[nH]1)C(C)C` (stereo partly drawn) [Compound A151] gave a negative logarithm of the EC50 (pEC50) in data set [3] above 9.00. The CC50 in “in vitro” lay within 10000 to 75000 nM.
Regarding `COC(=O)N[C@H](C(=O)N1CCC[C@H]1c1ncc(-c2ccc(-c3cn4cc(NC(=O)[C@@H]5CCCN5C(=O)[C@H](NC(=O)OC(C)C)c5ccccc5)nc4s3)cc2)[nH]1)C(C)C` [Compound A56], the pEC50 in data set [3] was above 9.00. The compound also returned a CC50 in “in vitro” above 75000 nM.
For `CC(C)(C)OC(=O)N[C@@H](C(=O)N1CCC[C@H]1C(=O)Nc1cn2cc(C#Cc3ccccc3)sc2n1)c1ccccc1` [Compound A23], in that order: below 7.00 and 10000 to 75000 nM.
For `COC(=O)N[C@H](C(=O)N1CCCC1c1ncc(-c2ccc(-c3cc4sc(Br)cc4s3)cc2)[nH]1)C(C)C` (stereo partly drawn) [Compound A168], in that order: 7.00 to 8.00 and 10000 to 75000 nM.
As for `COC(=O)N[C@H](C(=O)N1CCC[C@H]1c1ncc(-c2ccc(-c3csc4c(Br)csc34)cc2)[nH]1)C(C)C` [Compound A155, [(S)-1-((S)-2-{4-[4-(6-bromo-thieno[3,2-b]thiophen-3-yl)-phenyl]-1H-imidazol-2-yl}-pyrrolidine-1-carbonyl)-2-methyl-propyl]-carbamic acid methyl ester], the pEC50 in data set [3] was 7.00 to 8.00. The compound further had a CC50 in the data set “in vitro” of 10000 to 75000 nM.
In data set [3], `COC(=O)N[C@H](C(=O)N1CCCC1c1nc(-c2ccc(-c3cn4cc(-c5ccc(-c6cnc([C@@H]7CCCN7C(=O)[C@@H](NC(=O)OC)C(C)C)[nH]6)cc5)sc4n3)cc2)c[nH]1)C(C)C` (stereo partly drawn) [Compound A93] gave a negative-log EC50 (pEC50) above 9.00. The CC50 in “in vitro” is above 75000 nM.
The corresponding values for `COC(=O)N[C@H](C(=O)N1CCCC1c1nc(-c2ccc(-c3cc4sc(-c5ccc(-c6cnc([C@@H]7CCCN7C(=O)[C@@H](NC(=O)OC)C(C)C)[nH]6)cc5)cc4s3)cc2)c[nH]1)C(C)C` (stereo partly drawn) [Compound A159] are above 9.00 and above 75000 nM.
For `COC(=O)N[C@H](C(=O)N1CCC[C@H]1c1ncc(-c2ccc(-c3cn4cc(NC(=O)CNC(=O)[C@H](NC(=O)OC(C)(C)C)c5ccccc5)nc4s3)cc2)[nH]1)C(C)C` [Compound A148], in that order: 8.00 to 9.00 and above 75000 nM.
`COC(=O)N[C@H](C(=O)N1CCC[C@H]1C(=O)Nc1cn2cc(-c3cccc(NC(=O)[C@@H]4CCCN4C(=O)[C@H](NC(=O)OC)c4ccccc4)c3)sc2n1)C(C)C` [Compound A149] gave a negative logarithm of the EC50 (pEC50) in data set [3] of 7.00 to 8.00. This compound also yielded a half-maximal cytotoxic concentration (CC50) in “in vitro” of 10000 to 75000 nM.
